How the values were obtained:
[1] = biological target: T1, maltase (α-(1-4) glucosidase) from Saccharomyces; experiment: glucose release from maltose, capillary electrophoresis of PMP derivatives; assay type: biochemical; details: substrate maltose; citric buffer pH 6.8 or acetate buffer pH 4.5 (text does not assign clearly), 15 min
T1 construct: gene MAL12; commercial enzyme, Sigma-Aldrich Japan
From the text: glucose release from maltose, capillary electrophoresis of PMP derivatives on maltase (α-(1-4) glucosidase) from Saccharomyces

[2] = biological target: T2, Invertase from Candida utilis (Williopsis jadinii, UniProt O94224); experiment: glucose release from sucrose, capillary electrophoresis of PMP derivatives; assay type: biochemical; details: substrate sucrose (100 µg), acetate buffer pH 4.5, 15 min
T2 construct: gene INV1; commercial native enzyme, Seikagaku Biobusiness Corporation
T2 sequence (O94224 1-533): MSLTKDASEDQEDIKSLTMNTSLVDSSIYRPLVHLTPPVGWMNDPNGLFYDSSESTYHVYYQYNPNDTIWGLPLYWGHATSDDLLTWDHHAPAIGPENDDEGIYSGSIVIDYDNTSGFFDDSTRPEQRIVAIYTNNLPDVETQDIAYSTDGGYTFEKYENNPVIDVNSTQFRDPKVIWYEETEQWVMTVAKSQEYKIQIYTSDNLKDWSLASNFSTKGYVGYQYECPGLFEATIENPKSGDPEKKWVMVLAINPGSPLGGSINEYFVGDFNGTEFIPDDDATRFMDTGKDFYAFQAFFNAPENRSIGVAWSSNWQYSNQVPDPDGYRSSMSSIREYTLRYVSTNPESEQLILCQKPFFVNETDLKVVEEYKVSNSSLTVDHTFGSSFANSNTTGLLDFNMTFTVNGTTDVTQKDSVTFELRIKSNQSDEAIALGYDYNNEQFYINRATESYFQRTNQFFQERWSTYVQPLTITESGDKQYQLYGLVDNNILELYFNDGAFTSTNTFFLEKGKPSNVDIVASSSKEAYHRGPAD
From the text: glucose release from sucrose, capillary electrophoresis of PMP derivatives on Invertase from Candida utilis

In the case of `OC[C@H]1OC(O)[C@H](O)[C@@H](O)[C@@H]1OC[C@H]1OC(O)(CO)[C@@H](O)[C@@H]1O` (some centres unmarked) [maplebiose1], the IC50 [1] is reported as 1720 µM and the IC50 [2] is reported as 1170 µM.

Reference: paper PMC6834145, “Identification of a Novel Oligosaccharide in Maple Syrup as a Potential Alternative Saccharide for Diabetes Mellitus Patients” (International Journal of Molecular Sciences, 2019)
